Assay results taken from US7964641B2, “Treatment of neurodegenerative conditions” (BTG International Limited, priority 2003, dated 2011).
Where “and” joins values, the source holds several entries; their conditions need not be identical. Identical values can stand only once. Entries after “also recorded” stand apart in the source; their conditions may differ. Marks after values point to notes of the source that are not given here.

Key:
[1] = tested on: CREAE; test: CREAE studies of structured lipids (SCH in SJL mice, MOG in C57BL mice); type: in vivo, C57B1/6 and SJL mice; details: for Severity of CREAE (in words): oral, Studies 2 to 7, 25-350 ul; for Efficacy at low dose (FIG. 20): low dose (50 ul, Study 6); for Shape of dose response: some of the studies
[2] = tested on: EAE; details: depending on dose; cited from earlier work
[3] = tested on: EAE; details: guinea pig, in vivo; cited from earlier work
[4] = tested on: MOG-induced CREAE in SJL Mice; test: MOG-induced CREAE in SJL mice, forms of GLA (Table 3); type: in vivo; details: for Mean Clinical Score / No. with EAE: 100 μl of test lipid
[5] = tested on: brain and spinal cord lesions of EAE; details: GGG treated mice with histological scores 2 and 3
Excerpt: Animals were culled on PSD 25. […] Variation in the severity of changes between individual mice is summarised using a semi-quantitative five point grading system.

In the case of CCCCC/C=C\C/C=C\C/C=C\C/C=C\CCCC(=O)OCC(COC(=O)CCC/C=C\C/C=C\C/C=C\C/C=C\CCCCC)OC(=O)CCC/C=C\C/C=C\C/C=C\C/C=C\CCCCC [A-A-A, Glycerol trieicosotetra5-Z,8-Z,11-Z,14Z-eneoate], the “Severity of CREAE (in words)” value [1] is reported as “capable of reducing severity of CREAE”.

For CCCCC/C=C\C/C=C\C/C=C\C/C=C\CCCC(=O)OC(COC(=O)CCCCCCCCC)COC(=O)CCCCCCCCC [C-A-C, Glycerol 1,3-didecanoate 2-eicosatetra-(5-Z,8-Z,11-Z,14-Z)enoate], the “Severity of CREAE (in words)” value [1] was “capable of reducing severity of CREAE”.

In the case of CCCCC/C=C\C/C=C\CCCCCCCC(=O)O [linoleic acid], the “Protection in acute rat EAE” value [2] is listed as “dose-dependent action on the clinical severity but did not abolish it” and the “Incidence and severity of EAE” value [3] is listed as “partially suppresses”.

For CCCCC/C=C\C/C=C\C/C=C\CCCCC(=O)OCC [EE-GLA], the “Mean Clinical Score” value [4] was 3.0 ± 0.8 and the “No. with EAE” value [4] was 5/6.

For CCCCC/C=C\C/C=C\C/C=C\CCCCC(=O)OCC(COC(=O)CCCC/C=C\C/C=C\C/C=C\CCCCC)OC(=O)CCCCCCCCC [G-C-G, Glycerol 1,3-dioctadeca-(6Z,9Z,12Z)-trienoate 2-decanoate, reference compound], the “Severity of CREAE (in words)” value [1] was “failed to treat the condition; also recorded: lack of efficacy”.

For CCCCC/C=C\C/C=C\C/C=C\CCCCC(=O)OC(COC(=O)CCCCCCCCC)COC(=O)CCCCCCCCC [C-G-C, Glycerol 1,3-didecanoate 2-octadecatri(6-Z9-Z,12-Z)enoate], the “Efficacy at low dose (FIG. 20)” value [1] was “low dose efficacy”, the “Severity of CREAE (in words)” value [1] was “capable of reducing severity of CREAE” and the “Shape of dose response” value [1] was “bell shaped response curve”.

For CCCCC/C=C/C/C=C/C/C=C/CCCCC(=O)OCC(COC(=O)CCCC/C=C/C/C=C/C/C=C/CCCCC)OC(=O)CCCC/C=C/C/C=C/C/C=C/CCCCC [TG-GLA], the “Mean Clinical Score” value [4] was 1.0 ± 1.3^c, the “No. with EAE” value [4] was 3/6 and the “Protective effect in CREAE (in words)” value ([4]; compared with borage oil) was “protective effects similar to that of the borage oil”.

With CCCCC/C=C\C/C=C\C/C=C\CCCCCCC(=O)OC(COC(=O)CCCCCCCCC)COC(=O)CCCCCCCCC [C-DHGLA-C, Glycerol 1,3-didecanoate2-eicosa-(8Z,11Z,14Z)-trienoate] the “Efficacy at low dose (FIG. 20)” value [1] was “low dose efficacy” and the “Severity of CREAE (in words)” value [1] was “capable of reducing severity of CREAE”.

In the case of CCCCC/C=C\C/C=C\C/C=C\CCCCC(=O)O [γ-linolenic acid], the “Protection in acute rat EAE” value [2] is given as “fully protective”.

For CCCCC/C=C\C/C=C\C/C=C\CCCCC(=O)OCC(COC(=O)CCCC/C=C\C/C=C\C/C=C\CCCCC)OC(=O)CCCC/C=C\C/C=C\C/C=C\CCCCC [G-G-G, glycerol tri-6,9,12-linolenate], the “Severity of CREAE (in words)” value [1] was “capable of reducing severity of CREAE”, the “Shape of dose response” value [1] was “bell shaped response curve” and the “EAE severity score of the mice with histological changes” value [5] was 1 and 1.5.
